According to ChEMBL document CHEMBL4831537, “Biotransformation of Betulonic Acid by the Fungus Rhizopus arrhizus CGMCC 3.868 and Antineuroinflammatory Activity of the Biotransformation Products” (J Nat Prod, 2021):
pIC50: −log10 of the molar value.

What was measured:
BV-2 = assay: Anti-neuroinflammatory activity in mouse BV-2 cells assessed as inhibition of LPS-induced NO production incubated for 48 hrs by Griess reagent based assay; type: functional, cell-based; conditions: BV-2, 48 h
[1] = Cytotoxicity against mouse BV-2 cells assessed as cell viability by MTT assay; type: cell-based; design: concentration or dose not given beside the values; conditions: read-out: Activity

| SMILES | pIC50 (BV-2) | viability [1] [%] |
| --- | --- | --- |
| C=C(COC(C)=O)[C@@H]1CC[C@]2(C(=O)O)CC[C@]3(C)[C@H](CC[C@@H]4[C@@]5(C)CCC(=O)C(C)(C)[C@@H]5C[C@H](O)[C@]43C)[C@@H]12 | 5.27 | 109 |
| C=C(C)[C@@H]1C[C@@H](O)[C@]2(C(=O)O)CC[C@]3(C)[C@H](CC[C@@H]4[C@@]5(C)CCC(=O)C(C)(C)[C@@H]5C[C@H](O)[C@]43C)[C@@H]12 | 4.43 | 101 |
| C=C(C)[C@@H]1CC[C@]2(C(=O)O)C[C@H](O)[C@]3(C)[C@H](CC[C@@H]4[C@@]5(C)CCC(=O)C(C)(C)[C@@H]5C[C@H](O)[C@]43C)[C@@H]12 | 4.03 | 101 |
| CC(=O)OC[C@@H](C)[C@@H]1CC[C@]2(C(=O)O)CC[C@]3(C)[C@H](CC[C@@H]4[C@@]5(C)CCC(=O)C(C)(C)[C@@H]5C[C@H](O)[C@]43C)[C@@H]12 | 4.18 | 98.8 |
| C=C(COO)[C@@H]1CC[C@]2(C(=O)O)CC[C@]3(C)[C@H](CC[C@@H]4[C@@]5(C)CCC(=O)C(C)(C)[C@@H]5CC[C@]43C)[C@@H]12 | 4.61 | 101 |
| C=C(C)[C@@H]1CC[C@]2(C(=O)O)CC[C@]3(C)[C@H](CC[C@@H]4[C@@]5(C)CCC(=O)C(C)(C)[C@@H]5CC[C@]43C)[C@@H]12 [BETUNOLIC ACID] | 4.22 | 102 |
| CC(=O)OC[C@H](C)[C@@H]1CC[C@]2(C(=O)O)CC[C@]3(C)[C@H](CC[C@@H]4[C@@]5(C)CCC(=O)C(C)(C)[C@@H]5C[C@H](O)[C@]43C)[C@@H]12 | 4.21 | 99.5 |
| C=C(C)[C@@H]1CC[C@]2(C(=O)O[C@@H]3O[C@H](CO)[C@@H](O)[C@H](O)[C@H]3O)CC[C@]3(C)[C@H](CC[C@@H]4[C@@]5(C)CCC(=O)C(C)(C)[C@@H]5C[C@H](O)[C@]43C)[C@@H]12 | 5.33 | 101 |
| C=C(C)[C@@H]1CC[C@]2(C(=O)O)C[C@H](O)[C@]3(C)[C@H](C[C@@H](O)[C@@H]4[C@@]5(C)CCC(=O)C(C)(C)[C@@H]5CC[C@]43C)[C@@H]12 | < 4.00 | 103 |
| CNC(=N)NCCC[C@H](N)C(=O)O [TILARGININE] | 4.67 | 110 |
| C=C(CO)[C@@H]1CC[C@]2(C(=O)O)CC[C@]3(C)[C@H](CC[C@@H]4[C@@]5(C)CCC(=O)C(C)(C)[C@@H]5CC[C@]43C)[C@@H]12 | 4.45 | 104 |
| C=C(C)[C@@H]1CC[C@]2(C(=O)O)C[C@H](O)[C@]3(C)[C@H](CC[C@@H]4[C@@]5(C)CCC(=O)[C@@](C)(COC(C)=O)[C@@H]5CC[C@]43C)[C@@H]12 | 4.37 | 102 |
| C=C(C)[C@@H]1CC[C@]2(C(=O)O)CC[C@]3(C)[C@H](CC[C@@H]4[C@@]5(C)CCC(=O)C(C)(C)[C@@H]5C[C@H](OC(C)=O)[C@]43C)[C@@H]12 | 4.99 | 102 |
| C=C(C)[C@@H]1CC[C@]2(C(=O)O)C[C@H](O)[C@]3(C)[C@H](CC[C@@H]4[C@@]5(C)CCC(=O)[C@@](C)(CO)[C@@H]5C[C@H](O)[C@]43C)[C@@H]12 | 4.23 | 105 |
| C=C(COC(C)=O)[C@@H]1CC[C@]2(C(=O)O)C[C@H](O)[C@]3(C)[C@H](CC[C@@H]4[C@@]5(C)CCC(=O)C(C)(C)[C@@H]5CC[C@]43C)[C@@H]12 | 4.12 | 101 |

More lines, main results first:

| pIC50 (BV-2) | SMILES | viability [1] [%] |
| --- | --- | --- |
| < 4.00 | C=C(C)[C@@H]1CC[C@]2(C(=O)O)CC[C@]3(C)[C@H](C[C@H](O)[C@@H]4[C@@]5(C)CCC(=O)C(C)(C)[C@@H]5C[C@H](O)[C@]43C)[C@@H]12 | 88.4 |
| 4.81 | C=C(C)[C@@H]1CC[C@]2(C(=O)O)CC[C@]3(C)[C@H](CC[C@@H]4[C@@]5(C)CCC(=O)[C@@](C)(CO)[C@@H]5C[C@H](O)[C@]43C)[C@@H]12 | 110 |
| 5.81 | C=C(C)[C@@H]1CC[C@]2(C(=O)O)CC[C@]3(C)[C@H](CC[C@@H]4[C@@]5(C)CCC(=O)[C@@](C)(COC(C)=O)[C@@H]5C[C@H](O)[C@]43C)[C@@H]12 | 103 |
| 4.27 | CC(=O)[C@@H]1CC[C@]2(C(=O)O)CC[C@]3(C)[C@H](CC[C@@H]4[C@@]5(C)CCC(=O)C(C)(C)[C@@H]5C[C@H](O)[C@]43C)[C@@H]12 | 106 |
| < 4.00 | C=C(C)[C@@H]1CC[C@]2(C(=O)O)CC[C@]3(C)[C@H](CC[C@@H]4[C@@]5(C)CC(=O)[C@H](O)C(C)(C)[C@@H]5C[C@H](O)[C@]43C)[C@@H]12 | 97.3 |
| 4.96 | C=C(CO)[C@@H]1CC[C@]2(C(=O)O)CC[C@]3(C)[C@H](CC[C@@H]4[C@@]5(C)CCC(=O)C(C)(C)[C@@H]5C[C@H](O)[C@]43C)[C@@H]12 | 103 |
| 4.19 | C=C(C)[C@@H]1CC[C@]2(C(=O)O)CC[C@]3(C)[C@H](CC[C@@H]4[C@@]5(C)C[C@@H](O)C(=O)C(C)(C)[C@@H]5C[C@H](O)[C@]43C)[C@@H]12 | 106 |
| 4.46 | C=C(C)[C@@H]1CC[C@]2(C(=O)O)CC[C@]3(C)[C@H](CC[C@@H]4[C@@]5(C)CCC(=O)C(C)(C)[C@@H]5C[C@H](O)[C@]43C)[C@@H]12 | 99.2 |
